{"source": "patent US12275731B2", "about": "“Azaindole inhibitors of wild-type and mutant forms of LRRK2” (DANA-FARBER CANCER INSTITUTE, INC., priority 2018, dated 2025)", "assay_in_all_cases": "KinomeScan profiling", "type_in_all_cases": "binding", "key": {"[1]": {"molecular_target": "T1, ABL1(M351T)-phosphorylated (Homo sapiens, UniProt P00519, M351T)", "T1 construct": "purchased KinomeScan®", "conditions": "read-out: % control", "method_in_brief": "(§1)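 Compounds were screened at 1 μM in DMSO across a 468-kinase KinomeScan panel. Binding was expressed as % control, scaled between a positive control (0%) and DMSO (100%) using luminescence signal. A value under 35% counted as active.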"}, "[2]": {"molecular_target": "T2, JAK1(JH1domain-catalytic) (Homo sapiens, UniProt P23458)", "T2 construct": "JAK1(JH1domain-catalytic); purchased KinomeScan®", "T2 sequence (P23458 875-1153 limits assumed)": "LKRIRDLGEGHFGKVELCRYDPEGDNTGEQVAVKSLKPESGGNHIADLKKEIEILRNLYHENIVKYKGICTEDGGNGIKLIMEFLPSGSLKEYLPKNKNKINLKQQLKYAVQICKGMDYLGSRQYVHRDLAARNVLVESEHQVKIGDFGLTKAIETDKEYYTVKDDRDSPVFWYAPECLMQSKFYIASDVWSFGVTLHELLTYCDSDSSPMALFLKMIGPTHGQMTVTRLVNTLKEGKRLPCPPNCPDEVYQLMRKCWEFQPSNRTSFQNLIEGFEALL", "conditions": "read-out: % control", "method_in_brief": "as §1"}, "CAMKK2": {"molecular_target": "CAMKK2 (Homo sapiens, UniProt Q96RR4)", "sequence (Q96RR4 whole entry)": "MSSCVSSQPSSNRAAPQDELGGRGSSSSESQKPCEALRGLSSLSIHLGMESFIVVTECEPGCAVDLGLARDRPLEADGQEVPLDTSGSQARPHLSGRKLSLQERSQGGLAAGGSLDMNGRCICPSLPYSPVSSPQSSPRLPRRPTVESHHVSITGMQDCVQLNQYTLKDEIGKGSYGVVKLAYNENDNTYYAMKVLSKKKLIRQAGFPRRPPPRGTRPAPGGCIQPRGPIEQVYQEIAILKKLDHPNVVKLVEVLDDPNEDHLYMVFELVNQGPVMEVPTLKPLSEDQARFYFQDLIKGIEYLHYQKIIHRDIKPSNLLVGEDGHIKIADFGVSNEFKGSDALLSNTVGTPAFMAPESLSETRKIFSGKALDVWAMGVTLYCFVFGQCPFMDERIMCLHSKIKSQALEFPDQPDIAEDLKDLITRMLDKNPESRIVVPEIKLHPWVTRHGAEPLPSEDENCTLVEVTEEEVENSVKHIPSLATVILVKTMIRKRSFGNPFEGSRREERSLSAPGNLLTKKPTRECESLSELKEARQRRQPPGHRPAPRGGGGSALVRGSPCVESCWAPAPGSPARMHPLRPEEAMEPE", "conditions": "CAMKK2, 1 μM; read-out: % control", "method_in_brief": "as §1"}, "SNARK": {"molecular_target": "T3, SNARK (Homo sapiens, UniProt Q9H093)", "T3 construct": "purchased KinomeScan® (panel service)", "T3 sequence (Q9H093 1-628)": "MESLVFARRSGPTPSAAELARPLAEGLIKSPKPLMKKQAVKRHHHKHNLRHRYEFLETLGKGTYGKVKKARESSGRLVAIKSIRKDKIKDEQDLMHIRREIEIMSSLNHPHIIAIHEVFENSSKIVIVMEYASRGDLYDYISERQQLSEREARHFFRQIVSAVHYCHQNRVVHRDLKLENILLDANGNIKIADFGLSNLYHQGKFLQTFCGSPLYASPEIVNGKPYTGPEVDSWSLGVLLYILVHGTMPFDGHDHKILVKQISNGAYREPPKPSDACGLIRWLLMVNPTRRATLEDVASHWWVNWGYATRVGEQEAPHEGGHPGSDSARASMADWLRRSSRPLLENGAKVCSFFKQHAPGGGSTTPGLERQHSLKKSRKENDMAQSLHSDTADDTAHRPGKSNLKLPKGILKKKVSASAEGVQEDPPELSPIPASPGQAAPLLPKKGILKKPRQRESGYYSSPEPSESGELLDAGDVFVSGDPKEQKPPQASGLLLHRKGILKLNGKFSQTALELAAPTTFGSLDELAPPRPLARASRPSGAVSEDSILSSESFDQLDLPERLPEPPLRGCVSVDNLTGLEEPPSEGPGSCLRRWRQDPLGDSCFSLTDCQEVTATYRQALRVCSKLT", "conditions": "read-out: % control", "method_in_brief": "as §1"}, "ARK5": {"molecular_target": "T4, ARK5 (Homo sapiens, UniProt O60285)", "T4 construct": "purchased KinomeScan®", "T4 sequence (O60285 1-661)": "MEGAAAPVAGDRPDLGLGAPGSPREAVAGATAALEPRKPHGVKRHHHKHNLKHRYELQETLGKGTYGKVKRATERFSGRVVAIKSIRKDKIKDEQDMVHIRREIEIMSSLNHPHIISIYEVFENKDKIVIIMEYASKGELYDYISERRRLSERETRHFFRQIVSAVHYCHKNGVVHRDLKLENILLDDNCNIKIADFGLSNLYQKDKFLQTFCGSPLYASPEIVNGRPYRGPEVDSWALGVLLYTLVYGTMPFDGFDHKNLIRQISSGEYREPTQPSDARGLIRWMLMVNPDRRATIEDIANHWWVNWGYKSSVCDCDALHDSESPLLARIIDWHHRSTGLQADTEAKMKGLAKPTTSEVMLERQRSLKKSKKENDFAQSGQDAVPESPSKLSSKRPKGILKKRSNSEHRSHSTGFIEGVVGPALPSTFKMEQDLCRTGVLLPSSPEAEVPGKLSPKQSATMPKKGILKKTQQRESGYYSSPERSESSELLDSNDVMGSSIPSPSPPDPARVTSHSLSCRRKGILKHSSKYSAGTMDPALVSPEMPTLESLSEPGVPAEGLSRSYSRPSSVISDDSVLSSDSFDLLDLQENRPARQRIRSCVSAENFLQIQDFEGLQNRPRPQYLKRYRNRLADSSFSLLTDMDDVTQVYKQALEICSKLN", "conditions": "ARK5, 1 μM; read-out: % control", "method_in_brief": "as §1"}, "PKN2": {"molecular_target": "PKN2 (Homo sapiens, UniProt Q16513)", "sequence (Q16513 whole entry)": "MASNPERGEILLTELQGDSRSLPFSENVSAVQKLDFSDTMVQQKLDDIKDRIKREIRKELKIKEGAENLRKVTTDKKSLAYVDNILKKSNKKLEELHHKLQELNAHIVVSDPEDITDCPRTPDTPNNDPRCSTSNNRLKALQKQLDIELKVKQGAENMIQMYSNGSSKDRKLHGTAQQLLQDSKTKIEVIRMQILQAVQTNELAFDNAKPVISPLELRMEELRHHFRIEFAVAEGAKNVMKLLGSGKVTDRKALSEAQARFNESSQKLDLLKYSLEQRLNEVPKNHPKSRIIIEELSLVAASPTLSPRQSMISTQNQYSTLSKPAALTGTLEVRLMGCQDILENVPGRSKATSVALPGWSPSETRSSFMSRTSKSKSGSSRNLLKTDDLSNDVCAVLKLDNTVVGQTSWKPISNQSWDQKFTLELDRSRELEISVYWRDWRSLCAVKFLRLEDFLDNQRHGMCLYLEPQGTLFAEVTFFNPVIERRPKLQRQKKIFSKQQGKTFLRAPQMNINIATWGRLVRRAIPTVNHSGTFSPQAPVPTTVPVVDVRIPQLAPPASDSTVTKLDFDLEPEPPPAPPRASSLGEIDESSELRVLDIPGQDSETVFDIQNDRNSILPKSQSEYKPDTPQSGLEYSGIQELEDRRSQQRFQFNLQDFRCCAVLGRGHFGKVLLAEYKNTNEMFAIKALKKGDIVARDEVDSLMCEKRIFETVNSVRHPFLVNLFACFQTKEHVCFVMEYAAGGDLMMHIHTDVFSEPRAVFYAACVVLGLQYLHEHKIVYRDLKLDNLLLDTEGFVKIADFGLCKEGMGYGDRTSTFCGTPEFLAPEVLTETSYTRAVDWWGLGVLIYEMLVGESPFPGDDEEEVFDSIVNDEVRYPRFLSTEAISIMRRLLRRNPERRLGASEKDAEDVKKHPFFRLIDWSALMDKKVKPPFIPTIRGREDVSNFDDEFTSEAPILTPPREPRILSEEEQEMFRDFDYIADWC", "conditions": "PKN2, 1 μM; read-out: % control", "method_in_brief": "as §1"}, "KIT(A829P)": {"molecular_target": "T5, KIT(A829P) (Homo sapiens, UniProt P10721, A829P)", "T5 construct": "purchased KinomeScan®", "T5 sequence (P10721 26-976 A829P)": "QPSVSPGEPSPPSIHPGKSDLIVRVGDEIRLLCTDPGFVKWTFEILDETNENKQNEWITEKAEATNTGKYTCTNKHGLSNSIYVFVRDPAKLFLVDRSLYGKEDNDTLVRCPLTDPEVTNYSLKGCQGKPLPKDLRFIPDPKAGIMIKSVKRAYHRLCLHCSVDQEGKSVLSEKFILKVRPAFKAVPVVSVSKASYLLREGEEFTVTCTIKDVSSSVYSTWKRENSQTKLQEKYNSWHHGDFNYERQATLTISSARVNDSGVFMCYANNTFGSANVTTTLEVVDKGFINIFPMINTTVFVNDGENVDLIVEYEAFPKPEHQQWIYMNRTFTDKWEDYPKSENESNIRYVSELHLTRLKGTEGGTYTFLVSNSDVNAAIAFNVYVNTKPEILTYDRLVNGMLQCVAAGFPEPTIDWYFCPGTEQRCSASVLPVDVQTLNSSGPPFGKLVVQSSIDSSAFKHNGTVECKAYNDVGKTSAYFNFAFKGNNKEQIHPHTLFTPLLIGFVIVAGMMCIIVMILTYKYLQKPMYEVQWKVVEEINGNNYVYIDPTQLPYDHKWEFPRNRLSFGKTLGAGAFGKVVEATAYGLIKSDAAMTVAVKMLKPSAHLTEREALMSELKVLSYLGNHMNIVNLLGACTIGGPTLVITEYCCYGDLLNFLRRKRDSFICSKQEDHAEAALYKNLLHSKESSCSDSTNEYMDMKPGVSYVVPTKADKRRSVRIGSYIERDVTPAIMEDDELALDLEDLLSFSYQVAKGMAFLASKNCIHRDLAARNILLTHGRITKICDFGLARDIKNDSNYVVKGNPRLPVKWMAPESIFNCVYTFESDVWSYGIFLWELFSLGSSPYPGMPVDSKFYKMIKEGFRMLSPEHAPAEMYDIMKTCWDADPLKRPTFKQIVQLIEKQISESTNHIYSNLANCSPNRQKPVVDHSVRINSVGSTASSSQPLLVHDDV", "conditions": "read-out: % control", "method_in_brief": "as §1"}, "CAMK2G": {"molecular_target": "CAMK2G (Homo sapiens, UniProt Q13555)", "sequence (Q13555 whole entry)": "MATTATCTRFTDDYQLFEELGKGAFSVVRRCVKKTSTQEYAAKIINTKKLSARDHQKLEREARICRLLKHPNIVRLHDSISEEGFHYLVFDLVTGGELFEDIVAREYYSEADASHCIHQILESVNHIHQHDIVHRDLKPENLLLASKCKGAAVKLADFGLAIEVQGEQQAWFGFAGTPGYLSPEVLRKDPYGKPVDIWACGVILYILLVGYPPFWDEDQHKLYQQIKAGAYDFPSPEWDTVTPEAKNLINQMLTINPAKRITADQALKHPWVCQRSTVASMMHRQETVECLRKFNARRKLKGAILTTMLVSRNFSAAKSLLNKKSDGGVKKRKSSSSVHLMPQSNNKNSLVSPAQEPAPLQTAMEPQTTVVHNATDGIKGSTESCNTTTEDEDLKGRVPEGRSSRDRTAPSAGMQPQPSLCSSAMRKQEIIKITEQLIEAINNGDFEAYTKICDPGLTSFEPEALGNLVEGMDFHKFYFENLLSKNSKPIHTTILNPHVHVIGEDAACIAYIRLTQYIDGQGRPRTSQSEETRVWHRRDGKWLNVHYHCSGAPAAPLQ", "conditions": "read-out: % control", "method_in_brief": "as §1"}, "p38-beta": {"molecular_target": "p38-beta (Homo sapiens, UniProt Q15759)", "sequence (Q15759 whole entry)": "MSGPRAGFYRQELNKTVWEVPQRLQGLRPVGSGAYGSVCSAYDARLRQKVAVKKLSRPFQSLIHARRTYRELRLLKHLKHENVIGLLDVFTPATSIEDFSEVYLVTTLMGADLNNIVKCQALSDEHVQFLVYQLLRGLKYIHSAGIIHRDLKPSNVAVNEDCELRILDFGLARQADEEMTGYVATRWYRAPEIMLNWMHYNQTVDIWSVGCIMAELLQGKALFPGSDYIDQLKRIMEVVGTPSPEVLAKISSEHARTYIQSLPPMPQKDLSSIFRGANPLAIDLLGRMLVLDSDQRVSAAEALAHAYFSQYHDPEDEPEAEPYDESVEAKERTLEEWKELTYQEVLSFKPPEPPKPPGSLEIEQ", "conditions": "read-out: % control", "method_in_brief": "as §1"}, "CDC2L1": {"molecular_target": "CDC2L1 (Homo sapiens, UniProt P21127)", "sequence (P21127 whole entry)": "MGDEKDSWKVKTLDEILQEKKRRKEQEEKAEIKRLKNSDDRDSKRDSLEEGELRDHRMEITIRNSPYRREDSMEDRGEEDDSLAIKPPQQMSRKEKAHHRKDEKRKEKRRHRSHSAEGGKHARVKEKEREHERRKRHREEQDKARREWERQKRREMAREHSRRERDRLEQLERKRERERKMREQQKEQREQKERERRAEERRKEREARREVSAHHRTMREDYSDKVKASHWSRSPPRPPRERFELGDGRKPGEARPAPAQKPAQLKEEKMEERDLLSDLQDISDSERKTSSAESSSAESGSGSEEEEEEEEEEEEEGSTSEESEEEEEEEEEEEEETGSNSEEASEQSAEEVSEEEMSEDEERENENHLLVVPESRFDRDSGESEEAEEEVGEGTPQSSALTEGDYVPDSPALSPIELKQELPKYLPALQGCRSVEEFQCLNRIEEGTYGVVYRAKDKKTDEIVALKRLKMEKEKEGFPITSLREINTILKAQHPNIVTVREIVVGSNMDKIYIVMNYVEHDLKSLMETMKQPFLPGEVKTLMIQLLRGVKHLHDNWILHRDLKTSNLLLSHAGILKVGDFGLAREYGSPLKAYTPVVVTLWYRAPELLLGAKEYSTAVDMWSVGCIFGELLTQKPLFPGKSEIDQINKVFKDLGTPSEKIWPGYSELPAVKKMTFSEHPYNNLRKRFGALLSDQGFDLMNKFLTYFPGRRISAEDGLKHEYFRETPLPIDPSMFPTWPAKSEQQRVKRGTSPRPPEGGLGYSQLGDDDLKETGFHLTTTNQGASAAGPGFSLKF", "conditions": "CDC2L1, 1 μM; read-out: % control", "method_in_brief": "as §1"}, "CDKL2": {"molecular_target": "T6, CDKL2 (Homo sapiens, UniProt Q92772)", "T6 sequence (Q92772 1-493)": "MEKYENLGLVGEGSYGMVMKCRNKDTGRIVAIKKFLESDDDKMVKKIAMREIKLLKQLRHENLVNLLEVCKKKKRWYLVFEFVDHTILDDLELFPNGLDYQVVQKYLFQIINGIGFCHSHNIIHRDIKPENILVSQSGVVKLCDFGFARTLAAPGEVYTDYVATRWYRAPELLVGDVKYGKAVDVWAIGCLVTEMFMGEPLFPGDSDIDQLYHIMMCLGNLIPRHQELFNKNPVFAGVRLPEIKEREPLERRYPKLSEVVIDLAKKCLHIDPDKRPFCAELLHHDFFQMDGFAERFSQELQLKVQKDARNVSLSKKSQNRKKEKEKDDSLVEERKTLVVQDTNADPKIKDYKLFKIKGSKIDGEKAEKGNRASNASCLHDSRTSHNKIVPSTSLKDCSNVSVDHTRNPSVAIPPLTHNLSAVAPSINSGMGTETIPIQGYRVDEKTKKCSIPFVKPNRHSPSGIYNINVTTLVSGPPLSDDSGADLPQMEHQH", "conditions": "CDKL2, 1 μM; read-out: % control", "method_in_brief": "as §1"}}, "data": [{"compound": "CNc1c(-c2ccc(C(=O)N3CCC(N4CCOCC4)CC3)cc2)cnc2[nH]cc(Cl)c12", "note": "[Compound 96, (4-(3-chloro-4-(methylamino)-1H-pyrrolo[2,3-b]pyridin-5-yl)phenyl)(4-morpholinopiperidin-1-yl)methanone]", "values": [{"measurement": "remaining binding at 1 µM", "setting": "[1]", "result": 71, "unit": "%"}, {"measurement": "remaining binding at 1 µM", "setting": "[2]", "result": 100, "unit": "%"}, {"measurement": "remaining binding at 1 µM", "setting": "CAMKK2", "result": 82, "unit": "%"}, {"measurement": "remaining binding at 1 µM", "setting": "SNARK", "result": 64, "unit": "%"}, {"measurement": "remaining binding at 1 µM", "setting": "ARK5", "result": 64, "unit": "%"}, {"measurement": "remaining binding at 1 µM", "setting": "PKN2", "result": 87, "unit": "%"}, {"measurement": "remaining binding at 1 µM", "setting": "KIT(A829P)", "result": 53, "unit": "%"}, {"measurement": "remaining binding at 1 µM", "setting": "CAMK2G", "result": 95, "unit": "%"}, {"measurement": "remaining binding at 1 µM", "setting": "p38-beta", "result": 58, "unit": "%"}, {"measurement": "remaining binding at 1 µM", "setting": "CDC2L1", "result": 96, "unit": "%"}, {"measurement": "remaining binding at 1 µM", "setting": "CDKL2", "result": 97, "unit": "%"}]}, {"compound": "O=C(c1ccc(-c2cnc3[nH]cc(Cl)c3c2NC2CCCC2)cc1)N1CCC(N2CCOCC2)CC1", "note": "[Compound 101, (4-(3-chloro-4-(cyclopentylamino)-1H-pyrrolo[2,3-b]pyridin-5-yl)phenyl)(4-morpholinopiperidin-1-yl)methanone]", "values": [{"measurement": "remaining binding at 1 µM", "setting": "[1]", "result": 93, "unit": "%"}, {"measurement": "remaining binding at 1 µM", "setting": "[2]", "result": 90, "unit": "%"}, {"measurement": "remaining binding at 1 µM", "setting": "CAMKK2", "result": 88, "unit": "%"}, {"measurement": "remaining binding at 1 µM", "setting": "SNARK", "result": 33, "unit": "%"}, {"measurement": "remaining binding at 1 µM", "setting": "ARK5", "result": 67, "unit": "%"}, {"measurement": "remaining binding at 1 µM", "setting": "PKN2", "result": 75, "unit": "%"}, {"measurement": "remaining binding at 1 µM", "setting": "KIT(A829P)", "result": 100, "unit": "%"}, {"measurement": "remaining binding at 1 µM", "setting": "CAMK2G", "result": 96, "unit": "%"}, {"measurement": "remaining binding at 1 µM", "setting": "p38-beta", "result": 92, "unit": "%"}, {"measurement": "remaining binding at 1 µM", "setting": "CDC2L1", "result": 94, "unit": "%"}, {"measurement": "remaining binding at 1 µM", "setting": "CDKL2", "result": 100, "unit": "%"}]}, {"compound": "CNc1c(-c2cnn([C@H]3CCN(C(C)=O)C[C@@H]3F)c2)cnc2[nH]cc(Cl)c12", "note": "[Compound 77, 1-((3S,4S)-4-(4-(3-chloro-4-(methylamino)-1H-pyrrolo[2,3-b]pyridin-5-yl)-1H-pyrazol-1-yl)-3-fluoropiperidin-1-yl)ethan-1-one]", "values": [{"measurement": "remaining binding at 1 µM", "setting": "[1]", "result": 75, "unit": "%"}, {"measurement": "remaining binding at 1 µM", "setting": "[2]", "result": 98, "unit": "%"}, {"measurement": "remaining binding at 1 µM", "setting": "CAMKK2", "result": 79, "unit": "%"}, {"measurement": "remaining binding at 1 µM", "setting": "SNARK", "result": 96, "unit": "%"}, {"measurement": "remaining binding at 1 µM", "setting": "ARK5", "result": 86, "unit": "%"}, {"measurement": "remaining binding at 1 µM", "setting": "PKN2", "result": 51, "unit": "%"}, {"measurement": "remaining binding at 1 µM", "setting": "KIT(A829P)", "result": 46, "unit": "%"}, {"measurement": "remaining binding at 1 µM", "setting": "CAMK2G", "result": 90, "unit": "%"}, {"measurement": "remaining binding at 1 µM", "setting": "p38-beta", "result": 95, "unit": "%"}, {"measurement": "remaining binding at 1 µM", "setting": "CDC2L1", "result": 99, "unit": "%"}, {"measurement": "remaining binding at 1 µM", "setting": "CDKL2", "result": 95, "unit": "%"}]}]}
